According to PMC7422721 (ACS chemical biology, 2019):

Legend:
RNF4 [1] = target: T1, RNF4 (Homo sapiens, UniProt P78317); experiment: competitive gel-based ABPP against IA-rhodamine labeling of pure RNF4; format: binding
T1 sequence (P78317 1-190): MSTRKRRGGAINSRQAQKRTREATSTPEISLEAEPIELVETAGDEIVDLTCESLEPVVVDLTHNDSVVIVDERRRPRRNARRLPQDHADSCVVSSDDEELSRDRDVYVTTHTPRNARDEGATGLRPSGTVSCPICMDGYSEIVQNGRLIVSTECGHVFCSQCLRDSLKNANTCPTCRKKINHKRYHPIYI

RNF4 [2] = target: T1, RNF4; experiment: LC-MS/MS of covalent adduct on purified RNF4; format: binding

Molecule | IC50 (RNF4 [1]) [nM] | IC50 (RNF4 [2])
Cc1sc2c(c1C)C(c1ccc(Cl)cc1)=N[C@@H](CC(=O)NCCCCOc1ccc(Oc3ccc(N(Cc4ccccc4)C(=O)CCl)cc3)cc1)c1nnc(C)n1-2 [CCW 28-3, CCW 28–3] | 540 | 
TRH 1–23 [TRH 1-23] |  | double digit micromolar
